This is an account of results in PubChem BioAssay (NCI).

Holding throughout (assay): NCI anticancer screen, dose series, 48 h
In experiment [1] the test system is LOX IMVI melanoma.
Experiment [2] deals with RPMI-8226 leukemia.
In experiment [3] the test system is NCI-H226 lung.
For experiment [4], the system named is SNB-75 CNS.
Experiment [5] concerns K-562 leukemia.
The subject of experiment [6] is NCI-H460 lung.
In experiment [7] the test system is CCRF-CEM leukemia.
For experiment [8], the system named is SW-620 colon.
Experiment [9] deals with HL-60(TB) leukemia.
The subject of experiment [10] is SN12C renal.
Experiment [11] concerns SK-OV-3 ovarian.
The subject of experiment [12] is SF-295 CNS.
Experiment [13] deals with OVCAR-3 ovarian.
In experiment [14] the test system is COLO 205 colon.
For experiment [15], the system named is A549 NSCLC.
Experiment [16] has as its system DMS 273 small cell lung.
Experiment [17] deals with SK-MEL-28 melanoma.
Experiment [18] deals with OVCAR-4 ovarian.
Experiment [19] deals with SR leukemia.
The test system of experiment [20] is TK-10 renal.

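Values below derive from 48-hour exposures of cells grown in 96-well plates, with endpoints linearly interpolated between the two concentrations bracketing the appropriate inhibition level. TGI: concentration producing complete growth inhibition.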

Consider `Cc1ccc(N2Cc3c(ccc4ccccc34)OP2(=O)Oc2ccc(Cl)c(C)c2)cc1` (stereo unspecified), for which the TGI in [1] is above 100 µM; in experiment [2], above 22.3 µM; in experiment [3], above 100 µM; in [4], above 100 µM; in experiment [5] it was above 100 µM; in experiment [6], above 100 µM. In addition, the TGI in [7], in experiment [8], in [9], in experiment [10], in experiment [11] and in [12] was above 100 µM each time. Besides, the TGI in experiment [13] was above 31.6 µM; in [14], above 100 µM; in [15], above 100 µM; in experiment [16], above 100 µM; in experiment [17], above 100 µM; in experiment [18], above 100 µM.
As to `CC(C)OP(=O)(OC(C)C)/C(I)=N/Nc1ccc([N+](=O)[O-])cc1`, the TGI in experiment [19], in experiment [2], in experiment [4], in experiment [5], in experiment [20] and in experiment [6] was above 100 µM each time. Besides, the TGI in experiment [7], in experiment [8], in experiment [9], in [10], in [11] and in experiment [12] was above 100 µM each time. The TGI in experiment [13], in experiment [14], in experiment [15], in experiment [16], in experiment [17] and in [18] was above 100 µM throughout.
Turning to `O=S(=O)(CCBr)CCBr`, the TGI in experiment [1] was 21.8 µM; in experiment [2], 12.1 µM; in experiment [3], 54.9 µM; in [4] it was 25.5 µM; in [5], above 48.8 µM; in experiment [6] it was 29.9 µM. For the same compound, the TGI is above 30.2 µM in experiment [7]; 5.74 µM in [8]; 5.93 µM in experiment [9]; 21.8 µM in experiment [10]; 43.6 µM in experiment [11]; 29.8 µM in experiment [12]. The TGI in [13] came out at 12.3 µM; in experiment [14] it was 12.7 µM; in experiment [15], 27.8 µM; in experiment [16] it was 15.1 µM; in experiment [17] it was 8.61 µM; in [18] it was 22.5 µM.
On to `COc1ccc(-n2cnnc2-c2nsc3ccccc23)cc1`, for which the TGI in experiment [19] was above 100 µM; in [1], above 100 µM; in experiment [2] it was above 100 µM; in experiment [4] it was 59.2 µM; in [5], above 100 µM; in experiment [20] it was above 100 µM. For the same compound, the TGI in experiment [6], in experiment [7], in experiment [8], in [9], in experiment [10] and in [13] was above 100 µM each time. Moreover, the TGI in experiment [14], in experiment [15], in experiment [16], in experiment [17] and in [18] was above 100 µM in each case.
In the case of `CCOP(=O)(OCC)/C(C#N)=C/c1cn(C)cn1`, the TGI in [19], in [3], in experiment [4], in experiment [5], in experiment [20] and in experiment [6] was above 100 µM in each case. Besides, the TGI in [7], in experiment [8], in experiment [10], in [11], in [12] and in experiment [13] was above 100 µM throughout. Further, the TGI in experiment [14], in experiment [15], in experiment [17] and in experiment [18] was above 100 µM in each case.
`Nc1nc(SCc2ccc([N+](=O)[O-])cc2)nc2c1ncn2C1OC(COP(=O)(O)O)C(O)C1O` (stereo unspecified): the TGI in experiment [19], in experiment [1], in experiment [3], in [4], in experiment [5] and in experiment [20] was above 100 µM in each case. For the same compound, the TGI in experiment [6], in [7], in experiment [8], in experiment [9], in experiment [10] and in [11] was above 100 µM throughout. In addition, the TGI in [12], in experiment [13], in experiment [14], in experiment [15], in experiment [16] and in experiment [17] was above 100 µM throughout. The compound further displayed a TGI in [18] above 100 µM.
As to `Cc1ccc(N=N/C(=N\NC(=O)c2ccc(C)cc2)c2ccc(N(CCC#N)CCC#N)cc2C)cc1`, the TGI in experiment [19], in experiment [1], in [2], in experiment [3], in experiment [4] and in [5] was above 100 µM throughout. The TGI in [20], in [6], in [7], in experiment [8], in experiment [9] and in experiment [11] was above 100 µM throughout. Moreover, the TGI in experiment [12] was above 100 µM; in [13], above 100 µM; in experiment [14], above 100 µM; in experiment [15], above 100 µM; in [17] it was 52.5 µM; in experiment [18], above 100 µM.
Take `CC(NC(=O)C(C)NC(=O)C(N)CCP(C)(=O)O)C(=O)O` (stereo unspecified): the TGI in experiment [1], in experiment [2], in experiment [3], in [4], in experiment [5] and in experiment [6] was above 100 µM each time. For the same compound, the TGI in experiment [7], in [8], in [9], in experiment [10], in experiment [11] and in experiment [12] was above 100 µM in each case. The TGI in experiment [13], in [14], in experiment [15], in experiment [16], in experiment [17] and in [18] was above 100 µM in each case.
Regarding `CC1=Nc2nc(Cl)cn2C(=O)C1(Cl)Cl`, the TGI in experiment [19], in experiment [1], in experiment [2], in experiment [3], in experiment [4] and in [5] was above 10 µM each time. Moreover, the TGI in [20], in experiment [6], in experiment [7], in experiment [8], in experiment [9] and in [10] was above 10 µM in each case. For the same compound, the TGI in experiment [11], in [12], in experiment [13], in experiment [14], in experiment [15] and in experiment [17] was above 10 µM each time. In experiment [18], the TGI was above 10 µM.
